# According to paper PMC4176947 (Journal of natural products, 2012):
# Starred links: 1 amine or outer side, 2 acyl side, 3 side chain; linkers in the order of their positions; H or OH if unused. Non-standard residues stand in square brackets, D forms with d. Residues, ends and D or L forms follow the SMILES beside them. *: point of attachment. X1 = O=C([C@H]1CSC([C@@H](Cc2ccccc2)N[*:1])=N1)[*:2]; Allyl(1,1-Me2) = C=CC(C)(C)*
# Key:
# [1] = target: wild-type HIV-1 integrase (Human immunodeficiency virus type 1 group M subtype B, UniProt P04585); format: biochemical; conditions: at 100 µg/mL
# [2] = test system: HIV-infected 1A2 cells (a subclone of CEM-SS TART cells); assay: Cytoprotective cell-based anti-HIV assay; conditions: at 78 µM
# [3] = cited from earlier work
# [4] = test system: adipocyte differentiation; conditions: cited from earlier work
# HIV integrase = conditions: cited from earlier work
structure (smiles),measurement,setting,value
"C=CC(C)(C)O[C@H](C)[C@@H]1NC(=O)[C@H]2CSC(=N2)[C@@H](Cc2ccccc2)NC(=O)[C@@H]2CCCN2C(=O)[C@H](CO)NC(=O)[C@H](CC(C)C)NC1=O [Compound 1, Mollamide E] (cyclo(LSP[X1]T(Allyl(1,1-Me2))))",HIV-1 integrase inhibition at single concentration,[1],no activity
same,HIV inhibition in cytoprotective assay at single concentration,[2],did not show any inhibition
"O=C(NCCc1ccccc1)NCCc1ccccc1 [N, N’-diphenethylurea]",Antidepressant action,[3],act as an antidepressant
same,Promotion of adipocyte differentiation,[4],promote adipocyte differentiation
"O=C(NCCc1ccccc1)NCCc1ccccc1C(=O)NCCc1ccccc1 [Compound 3, Molleurea A]",HIV-1 integrase inhibition at single concentration,[1],no activity
CC(C)C[C@@H]1NC(=O)[C@@H]2CCCN2C(=O)[C@H](C(C)C)NC(=O)c2csc(n2)CNC(=O)c2csc(n2)[C@H](CCC(N)=O)NC1=O [dolastatin 3],HIV integrase inhibition activity,HIV integrase,HIV integrase inhibition activity
